Assay results: US8415469B2, “Compounds and methods for kinase modulation, and indications therefor” (Plexxikon Inc., priority 2005, dated 2013)

Columns and labels:
Type in all cases: biochemical
Flt4 = biological target: T1, Flt4 (Homo sapiens, UniProt P35916); test: AlphaScreen kinase assay, Flt4; details: read-out: IC50, activity toward kinase Flt4
T1 construct: purchased ProQinase GmbH (Freiburg, Germany)
Description: AlphaScreen assay was used to screen additional kinases. The assay is similarly dependent on the phosphorylation of a peptide substrate. In this assay, an antibody that recognizes phosphorylated substrate is bound to an acceptor bead. The peptide substrate is attached to biotin, which binds to a donor head that contains streptavidin. Thus phosphorylated substrate is bound by antibody and streptavidin, bringing the donor and acceptor heads into close proximity when kinase is not inhibited. The donor produces singlet oxygen which results in emission from the acceptor when they are in close proximity. Conversely, when kinase is inhibited, the donor and acceptor beads are not associated and the emission from the acceptor is reduced.
AlphaScreen assays were done using compounds dissolved in DMSO to a concentration of 20 mM. The compounds were diluted accordingly to the desired final concentrations in each sample well, using 1:3 serial dilution for a total of 8 concentration points.

Kit = biological target: T2, Kit (Homo sapiens, UniProt P10721); test: AlphaScreen kinase assay, Kit; details: read-out: IC50, activity toward kinase Kit
T2 construct: P1332.N6 BI PTP KIT M552-K948-X COD; His6 (N); made in house; host or cells: E. coli (PTP1B co-expressed)
T2 sequence (P10721 with tags, fused parts or gaps): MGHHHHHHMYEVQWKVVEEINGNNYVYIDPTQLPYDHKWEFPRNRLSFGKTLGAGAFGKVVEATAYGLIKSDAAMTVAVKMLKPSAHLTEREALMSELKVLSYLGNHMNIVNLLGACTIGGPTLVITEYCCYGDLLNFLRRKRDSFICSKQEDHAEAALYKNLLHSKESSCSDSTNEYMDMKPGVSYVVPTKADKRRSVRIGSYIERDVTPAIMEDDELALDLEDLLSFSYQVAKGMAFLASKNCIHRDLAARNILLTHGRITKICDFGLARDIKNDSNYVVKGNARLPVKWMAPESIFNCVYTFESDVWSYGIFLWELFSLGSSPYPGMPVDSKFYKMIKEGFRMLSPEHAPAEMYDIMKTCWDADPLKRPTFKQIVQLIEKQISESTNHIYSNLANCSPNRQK

Ret = biological target: T3, Ret (Homo sapiens, UniProt P07949); test: AlphaScreen kinase assay, Ret; details: read-out: IC50, activity toward kinase Ret
T3 construct: P1378.pET-SF BI-PTP RET H661-R1012 HIS; made in house
T3 sequence (P07949 with tags, fused parts or gaps): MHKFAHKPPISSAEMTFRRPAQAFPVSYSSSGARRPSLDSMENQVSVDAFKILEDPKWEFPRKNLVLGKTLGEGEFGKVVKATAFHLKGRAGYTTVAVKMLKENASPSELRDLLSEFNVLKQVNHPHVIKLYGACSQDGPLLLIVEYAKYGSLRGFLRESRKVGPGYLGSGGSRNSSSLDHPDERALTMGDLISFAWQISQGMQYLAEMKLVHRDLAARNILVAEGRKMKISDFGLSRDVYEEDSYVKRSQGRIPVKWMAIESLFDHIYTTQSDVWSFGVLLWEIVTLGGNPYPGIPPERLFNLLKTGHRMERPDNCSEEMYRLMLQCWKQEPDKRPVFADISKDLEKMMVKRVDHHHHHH
Description: (§2) AlphaScreen assays were done using compounds dissolved in DMSO to a concentration of 20 mM. The compounds were diluted accordingly to the desired final concentrations in each sample well, using 1:3 serial dilution for a total of 8 concentration points. Plates were prepared such that each kinase reaction is 20 μl in 1× kinase buffer, 5% DMSO and 10 μM ATP. After incubation of the kinase reaction for 1 hour at room temperature, 5 μl of donor beads in stop buffer (50 mM EDTA in 1× kinase buffer) was added, the sample was mixed and incubated for 20 minutes at room temperature before adding 5 μl of acceptor beads in stop buffer. The samples were incubated for 60 minutes at room temperature and the signal per well was read on AlphaQuest reader.

Zap70 = biological target: T4, Zap70 (Homo sapiens, UniProt P43403); test: AlphaScreen kinase assay, Zap70; details: read-out: IC50, activity toward kinase Zap70
T4 construct: P1868.pFastBac1 ZAP70 D327-G606 HIS, WT; His7 (HHHHHHH) (C); made in house
T4 sequence (P43403 with tags, fused parts or gaps): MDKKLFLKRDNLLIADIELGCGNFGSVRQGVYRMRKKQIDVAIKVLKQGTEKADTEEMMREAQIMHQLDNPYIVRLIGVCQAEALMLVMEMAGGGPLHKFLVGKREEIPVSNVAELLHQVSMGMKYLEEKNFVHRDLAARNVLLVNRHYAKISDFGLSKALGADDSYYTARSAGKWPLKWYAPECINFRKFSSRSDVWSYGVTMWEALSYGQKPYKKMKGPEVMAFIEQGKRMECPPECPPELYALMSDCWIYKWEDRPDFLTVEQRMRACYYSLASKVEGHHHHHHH
Method in brief: (§1)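 Eight concentrations per compound (1:3 serial dilution of 20 mM DMSO stock) were tested. Read-out: AlphaScreen signal from phospho-antibody acceptor and streptavidin donor beads bound to biotinylated peptide substrate, reduced on kinase inhibition.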

Jnk3 = biological target: T5, Jnk3 (Homo sapiens, UniProt P53779); test: AlphaScreen kinase assay, Jnk3; details: read-out: IC50, activity toward kinase Jnk3
T5 construct: purchased Upstate Biotechnology
T5 sequence (P53779 whole entry): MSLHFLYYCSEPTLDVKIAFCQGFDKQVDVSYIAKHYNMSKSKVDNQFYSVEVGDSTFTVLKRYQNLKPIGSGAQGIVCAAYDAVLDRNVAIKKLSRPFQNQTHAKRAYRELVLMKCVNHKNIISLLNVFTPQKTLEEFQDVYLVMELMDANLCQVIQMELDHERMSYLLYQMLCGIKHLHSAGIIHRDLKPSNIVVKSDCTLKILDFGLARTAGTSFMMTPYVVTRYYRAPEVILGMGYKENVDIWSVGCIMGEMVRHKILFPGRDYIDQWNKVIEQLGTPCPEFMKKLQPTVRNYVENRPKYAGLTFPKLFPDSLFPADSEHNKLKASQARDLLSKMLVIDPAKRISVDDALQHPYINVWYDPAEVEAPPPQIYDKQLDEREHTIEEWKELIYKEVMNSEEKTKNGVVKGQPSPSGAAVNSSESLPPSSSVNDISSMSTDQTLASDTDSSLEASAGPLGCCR

Kdr = biological target: T6, Kdr (Homo sapiens, UniProt P35968); test: Z'-Lyte FRET kinase assay (Invitrogen), Kdr; details: read-out: IC50, activity toward kinase Kdr
T6 construct: purchased Invitrogen (assay run by Invitrogen)
T6 sequence (P35968 20-1356): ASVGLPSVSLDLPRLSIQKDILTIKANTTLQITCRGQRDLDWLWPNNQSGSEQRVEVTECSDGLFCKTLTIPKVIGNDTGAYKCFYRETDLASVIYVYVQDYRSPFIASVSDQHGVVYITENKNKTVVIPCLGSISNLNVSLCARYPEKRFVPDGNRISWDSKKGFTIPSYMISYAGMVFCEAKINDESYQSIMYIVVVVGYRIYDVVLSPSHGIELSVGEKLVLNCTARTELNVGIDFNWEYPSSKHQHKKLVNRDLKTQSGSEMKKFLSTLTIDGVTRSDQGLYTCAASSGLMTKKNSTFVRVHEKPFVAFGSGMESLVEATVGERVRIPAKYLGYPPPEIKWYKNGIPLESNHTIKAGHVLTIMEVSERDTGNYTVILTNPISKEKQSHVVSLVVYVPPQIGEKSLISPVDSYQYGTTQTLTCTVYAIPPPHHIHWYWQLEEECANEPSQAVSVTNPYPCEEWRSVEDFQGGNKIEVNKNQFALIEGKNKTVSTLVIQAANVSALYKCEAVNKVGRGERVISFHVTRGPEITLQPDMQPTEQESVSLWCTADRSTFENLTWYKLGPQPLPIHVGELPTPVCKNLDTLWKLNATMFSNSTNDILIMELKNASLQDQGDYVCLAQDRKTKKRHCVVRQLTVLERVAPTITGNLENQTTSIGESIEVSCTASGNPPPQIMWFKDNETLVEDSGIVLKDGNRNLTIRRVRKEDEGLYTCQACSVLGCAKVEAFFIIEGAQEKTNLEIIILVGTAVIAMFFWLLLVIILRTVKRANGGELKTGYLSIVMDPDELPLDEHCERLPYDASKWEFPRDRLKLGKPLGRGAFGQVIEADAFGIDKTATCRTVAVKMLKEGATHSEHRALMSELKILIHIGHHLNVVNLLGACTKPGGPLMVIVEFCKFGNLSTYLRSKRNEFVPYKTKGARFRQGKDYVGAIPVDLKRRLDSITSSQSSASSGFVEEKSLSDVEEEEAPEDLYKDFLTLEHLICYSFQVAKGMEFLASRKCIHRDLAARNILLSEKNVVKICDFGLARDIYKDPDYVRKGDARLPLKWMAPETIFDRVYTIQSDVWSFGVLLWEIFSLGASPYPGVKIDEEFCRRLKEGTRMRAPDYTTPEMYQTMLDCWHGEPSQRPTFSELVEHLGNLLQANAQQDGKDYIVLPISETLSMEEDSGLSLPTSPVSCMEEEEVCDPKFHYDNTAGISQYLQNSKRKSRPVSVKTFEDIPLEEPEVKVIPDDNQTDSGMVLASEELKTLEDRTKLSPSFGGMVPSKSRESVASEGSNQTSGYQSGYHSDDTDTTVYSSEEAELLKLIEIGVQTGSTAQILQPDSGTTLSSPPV
Description: For example, direct radiometric, indirect FRET or AlphaScreen assays may be used to assess the level of phosphorylation of a substrate in the presence of test compounds in order to determine the inhibitory affect of the compound on the kinase. […] For these assays, compounds of the invention were screened by Invitrogen using Z′-Lyte™ kinase assay.
Briefly, the Invitrogen kinase assay involves use of a specific peptide substrate optimized for each kinase, containing a fluorophore at each end that make up the FRET pair. The peptide sensitivity to proteolytic cleavage depends on phosphorylation of the peptide. Non-phosphorylated peptide is cleaved by a protease while peptide phosphorylated by the kinase is not cleaved. Cleavage of the peptide disrupts the FRET between the donor (coumarin) and acceptor (fluorescein) fluorophores, resulting in an increase in the ratio of donor emission to acceptor emission. The emission ratio of coumarin to fluorescein is used to assess the reaction progress. […] Thus, the assay involves a kinase reaction in the presence of varying concentrations of a given compound, a development reaction with site specific protease, and detection of the fluorescent emission ratio of coumarin and fluorscein. […] Reaction conditions for each kinase are determined to provide optimal reaction times, incubation temperature, kinase and ATP concentrations. Test samples are made up in 1× kinase buffer (50 mM HEPES pH 7.5, 50 mM MgCl2, 5 mM EGTA, 0.05% BRIJ-35) and compound at desired concentration prepared in DMSO such that the final DMSO is 1%. […] All kinase except for MAP2K1 were at 10 μM ATP in the kinase reaction, while MAP2K1 was at 100 μM. Samples are mixed and the kinase reaction is incubated 1 hour at room temperature, after which 5 μl of development solution is added and mixed. After incubation for another 1 hour at room temperature, 5 μl of stop reagent is added to each sample and mixed. The fluorescence signals are measured to determine the emission ratio.

Src = biological target: T7, Src (Homo sapiens, UniProt P12931); test: AlphaScreen kinase assay, Src; details: read-out: IC50, activity toward kinase Src
T7 construct: P1144. pET-N6 BI-PTP SRC V86-L536-X; made in house
T7 sequence (P12931 with tags, fused parts or gaps): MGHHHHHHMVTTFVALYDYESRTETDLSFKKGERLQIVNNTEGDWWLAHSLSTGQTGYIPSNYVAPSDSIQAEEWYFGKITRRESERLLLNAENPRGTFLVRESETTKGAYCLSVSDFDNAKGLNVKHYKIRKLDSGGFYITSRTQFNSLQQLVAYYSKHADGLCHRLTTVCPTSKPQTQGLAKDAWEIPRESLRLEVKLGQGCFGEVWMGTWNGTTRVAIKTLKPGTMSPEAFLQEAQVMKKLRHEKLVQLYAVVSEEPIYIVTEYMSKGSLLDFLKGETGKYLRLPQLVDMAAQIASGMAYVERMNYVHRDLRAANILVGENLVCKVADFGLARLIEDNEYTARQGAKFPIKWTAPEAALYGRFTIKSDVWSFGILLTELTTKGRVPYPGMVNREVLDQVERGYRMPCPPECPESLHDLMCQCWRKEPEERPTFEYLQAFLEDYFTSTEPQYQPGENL

B-Raf V600E = biological target: T8, B-Raf V600E (Homo sapiens, UniProt P15056, V600E); test: AlphaScreen kinase assay, B-Raf V600E; details: read-out: IC50, activity toward kinase B-Raf V600E
T8 construct: P4254. pFastBacBD-CDC37 BRAF D437-K722-X, V600E; His6 with pFastBac HT leader (TEV site) (N); made in house; host or cells: Sf9 (baculovirus; chaperone CDC37 co-expressed)
T8 sequence (P15056 with tags, fused parts or gaps V600E): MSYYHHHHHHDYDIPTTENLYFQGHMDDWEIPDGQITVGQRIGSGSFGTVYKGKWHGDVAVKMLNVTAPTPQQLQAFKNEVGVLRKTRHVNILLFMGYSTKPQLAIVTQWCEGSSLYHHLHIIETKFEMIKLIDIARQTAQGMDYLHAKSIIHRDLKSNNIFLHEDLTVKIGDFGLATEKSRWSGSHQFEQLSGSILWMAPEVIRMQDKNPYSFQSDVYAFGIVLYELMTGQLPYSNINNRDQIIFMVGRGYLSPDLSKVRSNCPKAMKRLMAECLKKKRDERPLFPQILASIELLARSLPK

Abl = biological target: T9, Abl (Homo sapiens, UniProt P00519); test: AlphaScreen kinase assay, Abl; details: read-out: activity toward kinase Abl, IC50
T9 construct: P1121. pET-SPEC BI-PTP Abl G227-V515-X; His6 (N); made in house; host or cells: E. coli (PTP1B co-expressed)
T9 sequence (P00519 with tags, fused parts or gaps): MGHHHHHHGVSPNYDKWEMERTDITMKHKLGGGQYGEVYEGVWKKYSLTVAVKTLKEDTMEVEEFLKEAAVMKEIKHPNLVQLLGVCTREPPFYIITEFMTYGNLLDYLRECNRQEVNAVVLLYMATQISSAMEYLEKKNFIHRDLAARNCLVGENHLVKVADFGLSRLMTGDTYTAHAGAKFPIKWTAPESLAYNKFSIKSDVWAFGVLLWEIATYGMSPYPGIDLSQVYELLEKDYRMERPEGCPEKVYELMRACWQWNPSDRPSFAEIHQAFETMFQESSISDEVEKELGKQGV
Method in brief: as §1

FGFR1 = biological target: T10, FGFR1 (Homo sapiens, UniProt P11362, C488A/C584S); test: AlphaScreen kinase assay, FGFR1; details: read-out: IC50, activity toward kinase FGFR
T10 construct: P1351.pET N6 BI-PTP FGFR A458-E765-X C488A, C584S; made in house; host or cells: E. coli (PTP1B co-expressed)
T10 sequence (P11362 458-765 C488A/C584S): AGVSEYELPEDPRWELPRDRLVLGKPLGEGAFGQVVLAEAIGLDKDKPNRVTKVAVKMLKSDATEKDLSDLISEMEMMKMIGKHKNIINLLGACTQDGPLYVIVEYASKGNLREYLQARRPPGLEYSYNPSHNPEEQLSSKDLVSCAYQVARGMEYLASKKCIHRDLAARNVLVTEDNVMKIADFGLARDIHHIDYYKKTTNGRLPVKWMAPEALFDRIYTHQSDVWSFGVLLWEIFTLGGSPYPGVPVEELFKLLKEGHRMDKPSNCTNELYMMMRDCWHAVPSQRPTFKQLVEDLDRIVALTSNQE

Jnk1 = biological target: T11, Jnk1 (Homo sapiens, UniProt P45983); test: AlphaScreen kinase assay, Jnk1; details: read-out: IC50, activity toward kinase Jnk1
T11 construct: purchased Upstate Biotechnology
T11 sequence (P45983 whole entry): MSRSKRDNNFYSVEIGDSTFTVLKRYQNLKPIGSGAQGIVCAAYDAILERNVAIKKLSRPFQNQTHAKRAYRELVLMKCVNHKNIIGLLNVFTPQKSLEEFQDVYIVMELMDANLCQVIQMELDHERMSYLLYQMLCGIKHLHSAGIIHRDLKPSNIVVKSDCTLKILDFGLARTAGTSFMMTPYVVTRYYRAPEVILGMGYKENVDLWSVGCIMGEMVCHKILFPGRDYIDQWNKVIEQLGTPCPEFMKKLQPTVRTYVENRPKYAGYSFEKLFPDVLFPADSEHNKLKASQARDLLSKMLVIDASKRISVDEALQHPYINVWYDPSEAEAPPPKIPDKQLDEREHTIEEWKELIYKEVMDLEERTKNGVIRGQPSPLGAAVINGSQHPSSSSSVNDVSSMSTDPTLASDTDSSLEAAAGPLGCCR

Fms = biological target: T12, Fms (Homo sapiens, UniProt P07333); test: AlphaScreen kinase assay, Fms; details: read-out: IC50, activity toward kinase Fms
T12 construct: purchased Upstate Biotechnology

c-Raf-1 = biological target: T13, c-Raf-1 (Homo sapiens, UniProt P04049); test: AlphaScreen kinase assay, c-Raf-1; details: read-out: IC50, activity toward kinase c-Raf-1
T13 construct: purchased Upstate Biotechnology

B-Raf = biological target: T14, B-Raf (Homo sapiens, UniProt P15056); test: AlphaScreen kinase assay, B-Raf; details: read-out: IC50, activity toward kinase B-Raf
T14 construct: purchased Upstate Biotechnology
Description: as §2

Pyk2 = biological target: T15, Pyk2 (Homo sapiens, UniProt Q14289); test: AlphaScreen kinase assay, Pyk2; details: read-out: IC50, activity toward kinase Pyk2
T15 construct: purchased Upstate Biotechnology
Description: as §2

Flt1 = biological target: T16, Flt1 (Homo sapiens, UniProt P17948); test: AlphaScreen kinase assay, Flt1; details: read-out: IC50, activity toward kinase Flt1
T16 construct: P1826.pETN6 BI-PTP FLT1 M799-D1165-X WT; His6 (N); made in house; host or cells: E. coli (PTP1B co-expressed)
T16 sequence (P17948 with tags, fused parts or gaps): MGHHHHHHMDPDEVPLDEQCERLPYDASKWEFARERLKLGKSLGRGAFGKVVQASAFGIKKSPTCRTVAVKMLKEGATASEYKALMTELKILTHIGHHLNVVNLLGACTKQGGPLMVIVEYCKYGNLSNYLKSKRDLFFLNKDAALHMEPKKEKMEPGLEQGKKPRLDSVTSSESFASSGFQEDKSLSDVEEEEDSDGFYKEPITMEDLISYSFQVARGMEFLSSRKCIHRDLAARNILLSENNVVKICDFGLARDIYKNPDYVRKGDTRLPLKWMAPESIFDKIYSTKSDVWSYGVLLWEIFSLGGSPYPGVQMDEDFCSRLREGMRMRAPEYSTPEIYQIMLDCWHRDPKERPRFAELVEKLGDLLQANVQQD

Jnk2 = biological target: T17, Jnk2 (Homo sapiens, UniProt P45984); test: AlphaScreen kinase assay, Jnk2; details: read-out: IC50, activity toward kinase Jnk2
T17 construct: purchased Roche Protein Expression Group (Indianapolis, IN)
Method in brief: as §1

Fak = biological target: T18, Fak (Homo sapiens, UniProt Q05397); test: AlphaScreen kinase assay, Fak; details: read-out: IC50, activity toward kinase Fak
T18 construct: P1358.pFastBacHtb FAK S411-Q686-X; His6 with pFastBacHTb leader (TEV site) (N); made in house; host or cells: Sf9 (baculovirus)

MAP4K4 = MAP4K4 (Homo sapiens, UniProt O95819); test: AlphaScreen kinase assay, MAP4K4; details: read-out: IC50, activity toward kinase MAP4K4

Measured: IC50

T1 sequence (P35916 25-1363): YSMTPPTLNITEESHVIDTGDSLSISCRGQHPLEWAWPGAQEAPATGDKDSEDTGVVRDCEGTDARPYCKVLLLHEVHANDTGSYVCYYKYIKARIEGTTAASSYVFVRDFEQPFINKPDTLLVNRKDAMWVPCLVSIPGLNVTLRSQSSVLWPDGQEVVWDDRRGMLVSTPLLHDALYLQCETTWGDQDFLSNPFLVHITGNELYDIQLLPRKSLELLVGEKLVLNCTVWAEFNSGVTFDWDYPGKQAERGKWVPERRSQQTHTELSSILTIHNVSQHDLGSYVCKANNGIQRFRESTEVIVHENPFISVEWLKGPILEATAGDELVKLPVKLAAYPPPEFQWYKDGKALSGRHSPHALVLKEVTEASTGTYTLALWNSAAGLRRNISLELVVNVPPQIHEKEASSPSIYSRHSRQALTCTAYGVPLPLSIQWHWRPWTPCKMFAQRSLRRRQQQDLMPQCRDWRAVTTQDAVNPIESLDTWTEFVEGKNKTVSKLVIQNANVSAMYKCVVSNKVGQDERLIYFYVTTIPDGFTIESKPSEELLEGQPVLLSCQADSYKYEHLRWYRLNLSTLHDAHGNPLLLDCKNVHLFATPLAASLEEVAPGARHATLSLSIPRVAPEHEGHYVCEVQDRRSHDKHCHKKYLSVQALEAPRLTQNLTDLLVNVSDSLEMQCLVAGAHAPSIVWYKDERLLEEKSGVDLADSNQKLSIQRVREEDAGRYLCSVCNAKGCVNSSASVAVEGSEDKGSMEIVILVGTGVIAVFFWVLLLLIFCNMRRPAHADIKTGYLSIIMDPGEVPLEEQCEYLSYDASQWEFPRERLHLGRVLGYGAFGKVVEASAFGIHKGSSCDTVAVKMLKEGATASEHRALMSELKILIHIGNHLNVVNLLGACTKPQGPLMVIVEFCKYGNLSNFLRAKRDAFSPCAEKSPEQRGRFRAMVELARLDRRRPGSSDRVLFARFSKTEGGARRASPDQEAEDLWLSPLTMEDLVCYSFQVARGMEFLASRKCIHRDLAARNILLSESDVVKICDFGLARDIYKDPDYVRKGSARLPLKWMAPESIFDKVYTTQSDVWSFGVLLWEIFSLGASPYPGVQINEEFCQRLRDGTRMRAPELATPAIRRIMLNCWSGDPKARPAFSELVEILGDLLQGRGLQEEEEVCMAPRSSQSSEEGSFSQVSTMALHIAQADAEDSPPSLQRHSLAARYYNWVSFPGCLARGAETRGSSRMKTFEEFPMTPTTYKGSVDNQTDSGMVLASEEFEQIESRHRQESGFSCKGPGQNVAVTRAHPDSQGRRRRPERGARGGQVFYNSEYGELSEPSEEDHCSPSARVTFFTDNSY

Nc1cccc(-c2cnc3[nH]cc(C(=O)c4ccc5nsnc5c4)c3c2)c1 [Compound P-0703]
≤ 10 µM: Flt4 | Kit | Ret | Zap70 | Jnk3 | Kdr

COc1cccc(C(=O)C2C=Nc3nccc(-c4cc(F)cc(F)c4)c32)c1 (stereo not drawn) [Compound P-0453]
≤ 10 µM: Flt4 | Kit | Src | B-Raf V600E | Ret | Abl | FGFR1

O=C(c1cc(O)ccc1F)c1c[nH]c2ncc(-c3cccnc3)cc12 [Compound P-0559]
not listed: Zap70 | Jnk2 | Fak | MAP4K4
≤ 10 µM: all other assays above

COc1ccc(F)c(C(=O)c2c[nH]c3ncc(-c4cccs4)cc23)c1 [Compound P-0656]
≤ 10 µM: Flt4 | Fms | Kit | B-Raf V600E | c-Raf-1 | Ret | Abl | Flt1 | FGFR1 | Jnk3

COc1cc(O)cc(Cc2c[nH]c3ncc(-c4ccsc4)cc23)c1 [Compound P-0594]
≤ 10 µM: Flt4 | Kit | B-Raf V600E | Ret | B-Raf | Jnk2 | Abl | FGFR1 | Jnk3

O=C(c1cccc(F)c1)c1c[nH]c2nccc(-c3cc(F)cc(F)c3)c12 [Compound P-0316]
≤ 10 µM: Flt4 | Kit | Src | Ret | Abl | FGFR1 | Kdr

Cc1cc(C(=O)c2c[nH]c3ncc(-c4ccc(C(N)=O)cc4)cc23)n(C)n1 [Compound P-0762]
≤ 10 µM: Flt4 | Kit | B-Raf V600E | Ret | Abl | Kdr

O=C(c1cccc(Cl)c1Cl)c1c[nH]c2ncc(-c3cccnc3)cc12 [Compound P-0751]
≤ 10 µM: Flt4 | Kit | B-Raf V600E | Ret | Abl | Flt1 | FGFR1 | Kdr

Nc1cccc(-c2cnc3[nH]cc(C(=O)c4ccc(Cl)cc4)c3c2)c1 [Compound P-0738]
≤ 10 µM: Flt4 | Kit | Ret | Abl | Jnk3 | Kdr

O=C(c1cccc(F)c1F)c1c[nH]c2nccc(-c3cc(F)cc(F)c3)c12 [Compound P-0205]
≤ 10 µM: Flt4 | Kit | B-Raf V600E | Ret | Zap70 | FGFR1

Cc1cc(C(=O)c2c[nH]c3ncc(-c4cccc(C(N)=O)c4)cc23)n(C)n1 [Compound P-0224]
≤ 10 µM: Flt4 | Fak | Kit | Ret | Abl | Flt1 | Kdr

NC(=O)c1ccc(-c2cnc3[nH]cc(C(=O)c4ccccc4F)c3c2)cc1 [Compound P-0691]
not listed: Zap70 | Src | Fms | c-Raf-1 | B-Raf | Pyk2 | Jnk2 | MAP4K4
≤ 10 µM: all other assays above

O=C(c1ccc2ccccc2c1)c1c[nH]c2ncccc12 [Compound P-0495]
≤ 10 µM: Flt4 | Kit | Ret | Zap70 | FGFR1 | Kdr | MAP4K4

NC(=O)c1ccc(-c2cnc3[nH]cc(C(=O)c4cccc(O)c4)c3c2)cc1 [Compound P-0645]
≤ 10 µM: Flt4 | Kit | Src | B-Raf V600E | Ret | Abl | FGFR1 | Jnk3 | Kdr
